Laboratory results: paper PMC3125126 (European journal of pharmacology, 2010)
“And” between values parts separate entries of the source, which are not always exact repeats. Identical values can stand only once. Like-named read-outs stand apart in the source and are kept apart here.

Experiments:
[1] = tested on: GTP binding regulatory proteins; details: ref Higashijima et al., 1988; cited from earlier work
[2] = ref Sugama et al., 2005; Nakamura et al., 2004; cited from earlier work
[3] = tested on: phospholipase C activity in HEK-D2-hDAT cells; format: cell-based, human
dopamine transporter [4] = details: ref Chen et al., 2003, cited from earlier work
[5] = molecular target: T1, human dopamine transporter (hDAT) (Homo sapiens, UniProt Q01959); assay: [125I]RTI-55 binding to membranes of HEK-D2-hDAT cells; details: no melittin, 4°C, 16 h, 4 independent experiments
HEK-D2-hDAT cells = assay: [3H]Arachidonic acid release from preloaded cells; format: cell-based, human; details: quinpirole 1 nM to 10 µM; loaded 4 or 24 hours; data not shown
[6] = tested on: Ca2+-dependent phospholipase A2; details: ref Street et al., 1993; cited from earlier work
[7] = tested on: Ca2+-independent phospholipase A2; details: ref Yang et al., 1999; cited from earlier work
[8] = tested on: purified synaptosomes from rat striatum; details: rat striatal synaptosomes; ref L'hirondel et al., 1995; cited from earlier work
[9] = tested on: rat glutamate transporter, EAAT4; details: ref Fairman et al., 1998, Tzingounis et al.; cited from earlier work
dopamine transporter [10] = details: ref Ingram and Amara, 2000; cited from earlier work
protein kinase Cγ = details: bovine cerebellar cells; ref Shearman et al., 1989; cited from earlier work
glutamate uptake = details: ref Volterra et al., 1992, 1994; cited from earlier work
[11] = molecular target: T1, human dopamine transporter (hDAT); format: cell-based; details: butaclamol 100 nM added 10 min before uptake, with melittin 30 min pretreatment
dopamine transporter [12] = details: ref Daniels and Amara, 1999; cited from earlier work
[13] = molecular target: T1, human dopamine transporter (hDAT); assay: Dopamine transporter internalization by biotinylation; format: cell-based
rat Leydig cells = details: ref Ronco et al., 2002; cited from earlier work
[14] = tested on: rat (ventral tegmental area); details: pretreatment with quinacrine; ref Reid et al., 1996; cited from earlier work
[15] = tested on: phospholipase A2 activity in HEK-D2-hDAT cells; assay: Phospholipase A2 activity after cell treatment; format: cell-based, human; details: melittin 10 µM and/or quinacrine 10 µM, 30 min; n=3; not significant P>0.05

T1 sequence (Q01959 whole entry): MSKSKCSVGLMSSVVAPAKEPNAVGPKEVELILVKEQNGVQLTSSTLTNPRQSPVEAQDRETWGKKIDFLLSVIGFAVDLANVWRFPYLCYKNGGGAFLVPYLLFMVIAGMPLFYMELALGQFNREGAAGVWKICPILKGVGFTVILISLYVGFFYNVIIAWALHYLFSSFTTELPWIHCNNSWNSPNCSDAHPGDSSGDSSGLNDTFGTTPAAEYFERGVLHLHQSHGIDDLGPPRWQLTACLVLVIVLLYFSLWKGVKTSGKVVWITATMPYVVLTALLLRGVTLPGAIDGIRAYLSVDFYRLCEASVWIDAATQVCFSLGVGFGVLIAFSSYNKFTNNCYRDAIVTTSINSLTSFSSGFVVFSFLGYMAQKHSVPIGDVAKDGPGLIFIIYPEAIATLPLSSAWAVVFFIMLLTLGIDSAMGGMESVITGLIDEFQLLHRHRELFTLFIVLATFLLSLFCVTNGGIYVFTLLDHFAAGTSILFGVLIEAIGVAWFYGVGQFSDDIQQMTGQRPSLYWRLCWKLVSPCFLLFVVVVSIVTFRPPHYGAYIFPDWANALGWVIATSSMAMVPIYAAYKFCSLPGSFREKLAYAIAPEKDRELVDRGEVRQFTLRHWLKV

mastoparan
stimulation of GTP binding regulatory proteins [1]: stimulate GTP binding regulatory proteins indirectly
effect on membrane lipid rafts [2]: disrupts the membrane lipid rafts

NCCc1ccc(O)c(O)c1 [dopamine]
inositol phosphate-1 concentration [3]: 8.8 ± 3.0 nM

CCCCCCCC/C=C\CCCCCCCC(=O)O [oleic, oleic acid]
dopamine uptake by rotating disk electrode voltammetry (dopamine transporter [4]): inhibit dopamine transporter-mediated uptake, although to a lesser degree

COC(=O)[C@H]1C(c2ccc(I)cc2)C[C@@H]2CC[C@H]1N2C (stereo partly shown) [RTI-55]
RTI-55 Bmax ([5]; protease inhibitors): 6.7 ± 0.8 pmol/mg
Kd ([5]; read-out: RTI-55 KD): 8.3 ± 1.8 nM

CCCN1CCC[C@@H]2Cc3n[nH]cc3C[C@H]21 [quinpirole]
inositol phosphate-1 concentration ([3]; quinpirole 1 µM, 1 hour, basal 8.3 ± 2.5 nM, n=3, not significant P>0.05): 11.1 ± 2.0 nM
release of loaded [3H]arachidonic acid (HEK-D2-hDAT cells): less than 0.4%

CCCCC/C=C\C/C=C\C/C=C\C/C=C\CCCC(=O)C(F)(F)F [Arachidonyl trifluoromethyl ketone]
inhibition of Ca2+-dependent phospholipase A2 [6]: potent and selective inhibitor

O=C1O/C(=C/Br)CCC1c1cccc2ccccc12 (stereo not shown) [4-bromoenol lactone]
inhibition of Ca2+-independent phospholipase A2 [7]: selectively inhibited

CCCCC/C=C\C/C=C\C/C=C\C/C=C\CCCC(=O)O [arachidonic acid]
dopamine uptake by rotating disk electrode voltammetry (dopamine transporter [4]): decrease in dopamine uptake
spontaneous dopamine release, dopamine synthesis and uptake [8]: dose-dependently increases spontaneous release of dopamine and decreases dopamine synthesis and uptake
effect on proton conductance [9]: alters proton conductance
effect on cation conductance (dopamine transporter [10]): directly stimulates a cocaine-sensitive cation conductance
protein kinase Cγ activation (protein kinase Cγ): can activate protein kinase Cγ
effect on uptake of glutamate (glutamate uptake): inhibits uptake of glutamate

CCCCC/C=C\C/C=C\C/C=C\C/C=C\CCCC(=O)OCC [Arachidonic acid ethyl ester]
effect on dopamine transporter function (mimicry of arachidonic acid) (dopamine transporter [4]; Ingram and Amara, 2000): does not mimic the effects of arachidonic acid on dopamine transporter function

NC[C@@H]1O[C@H](O[C@H]2[C@@H](O)[C@H](O[C@@H]3[C@@H](O)[C@H](N)C[C@H](N)[C@H]3O[C@H]3O[C@H](CN)[C@@H](O)[C@H](O)[C@H]3N)O[C@@H]2CO)[C@H](N)[C@@H](O)[C@@H]1O [neomycin]
phospholipase C activity in presence of melittin without or with neomycin ([3]; neomycin 30 µM pretreatment, melittin 1.3 µM, 1 hour): no significant difference

CC(C)(C)[C@]1(O)CCN2C[C@H]3c4ccccc4CCc4cccc(c43)[C@@H]2C1 [butaclamol]
effect of D2 receptor block on [3H]dopamine uptake [11]: no difference in [^3H]dopamine uptake

COC(=O)[C@H]1[C@@H](OC(=O)c2ccccc2)C[C@@H]2CC[C@H]1N2C [cocaine]
effect on phorbol ester-induced dopamine transporter internalization (dopamine transporter [12]): does not alter phorbol ester-induced dopamine transporter internalization
dopamine transporter internalization [13]: 97.8 ± 6.2 % of control and 93.9 ± 8.4 % of control

CCCCC/C=C\C/C=C\CCCCCCCC(=O)O [linoleic acid]
dopamine uptake by rotating disk electrode voltammetry (dopamine transporter [4]): inhibit dopamine transporter-mediated uptake, although to a lesser degree

CCN(CC)CCCC(C)Nc1c2ccc(Cl)cc2nc2ccc(OC)cc12 (stereo not shown) [quinacrine]
effect on melittin-induced arachidonic acid release (rat Leydig cells): unable to inhibit melittin-induced release of arachidonic acid
block of melittin-caused sensitization [14]: blocked
phospholipase A2 activity [15]: 134 ± 19 % compared to control
